For data set [1], the system named is Mycolicibacterium smegmatis. Kind of data set: Antimicrobial activity against Mycobacterium smegmatis ATCC 607 after 24 hrs by agar dilution method. The format is functional. A general note: In agar dilution the substance is mixed into plates at graded concentrations.
The subject of data set [2] is Candida albicans. Put plainly: Antimicrobial activity against Candida albicans ATCC 60193 after 24 hrs by agar dilution method. The format is functional, organism-based.
For data set [3], the system named is Pseudomonas aeruginosa. Put plainly: Antimicrobial activity against Pseudomonas aeruginosa ATCC 10145 after 24 hrs by agar dilution method. The class given is functional, organism-based.
The subject of data set [4] is Bacillus cereus. Kind of data set: Antimicrobial activity against Bacillus cereus 709 Roma after 24 hrs by agar dilution method. The class given is functional.
The test system of data set [5] is Enterococcus faecalis. Kind of data set: Antimicrobial activity against Enterococcus faecalis ATCC 29212 after 24 hrs by agar dilution method. The format is functional, organism-based.
Data set [6] is described as follows: Antioxidant activity assessed as trolox equivalent of ferric ion reducing activity using fe3+-TPTZ at 200 ug/ml by FRAP assay. The class given is physicochemical.
The subject of data set [7] is Saccharomyces cerevisiae. Put plainly: Antimicrobial activity against Saccharomyces cerevisiae RSKK 251 after 24 hrs by agar dilution method. The class given is functional, organism-based.
The subject of data set [8] is Escherichia coli. Put plainly: Antimicrobial activity against Escherichia coli ATCC 25922 after 24 hrs by agar dilution method. The class given is functional, organism-based.
Data set [9] has as its system Yersinia pseudotuberculosis. Particulars: ATCC 911.
Data set [10] deals with Listeria monocytogenes. Kind of data set: Antimicrobial activity against Listeria monocytogenes ATCC 43251 after 24 hrs by agar dilution method. The format is functional, organism-based.
The subject of data set [11] is Staphylococcus aureus. Put plainly: Antimicrobial activity against Staphylococcus aureus ATCC 25923 after 24 hrs by agar dilution method. The format is functional.
Data set [12] can be described thus: Antioxidant activity assessed as DPPH scavenging activity at 200 ug/ml after 60 mins by spectrophotometry. Particulars: 1 h. The class given is physicochemical. On the technique in general: Loss of DPPH colour is used to gauge radical scavenging.

≈ marks a conversion by molar mass, not a printed value. Calls of active or inactive are those of the source. The rule behind the calls is not given here.

What is called MIC is the lowest concentration that inhibits growth of the organism.

Take `Nn1c(Cc2cccs2)nn(CC(=O)N/N=C/c2ccccc2)c1=O`: the MIC result in data set [1], in [2], in data set [3], in data set [4], in [5] and in data set [7] was “inactive” throughout. The MIC entry in data set [8], in [9], in data set [10] and in [11] was “inactive” each time. Besides, the Activity in [6] came to 40 µM.
On to `NNC(=O)Cn1nc(Cc2cccs2)n(N)c1=O`, for which, in data set [1] (ATCC 607, 24 h), it took 994 µg/mL (≈ 3.7 mM) to inhibit growth (MIC). Moreover, the MIC result in data set [2], in data set [3], in data set [4], in data set [5], in data set [7] and in [8] was “inactive” throughout. Besides, the MIC entry in data set [9], in [10] and in data set [11] was “inactive” in each case. For the same compound, the figures for the Activity in data set [6] and in data set [12] were 1368 µM and 1.9%, respectively.
Consider `Nn1c(Cc2cccs2)nn(CC(=O)N/N=C/c2cccs2)c1=O`, for which the MIC entry in data set [1], in [2], in data set [3], in [4], in data set [5] and in data set [7] was “inactive” throughout. The MIC result in data set [8], in data set [9], in [10] and in data set [11] was “inactive” throughout. Further, the Activity in data set [6] came to 36 µM.
Turning to `Nn1c(Cc2cccs2)nn(CC(=O)N/N=C/c2ccco2)c1=O`, the MIC entry in data set [1], in data set [2], in data set [3], in data set [4], in data set [5] and in [7] was “inactive” each time. The MIC result in [8], in [9], in data set [10] and in [11] was “inactive” throughout. Besides, the Activity in data set [6] was found to be 10 µM; in [12], 9.7%.
As for `O=C(Cn1nc(Cc2cccs2)n(/N=C/c2cccs2)c1=O)N/N=C/c1cccs1`, the MIC result in data set [1], in data set [2], in [3], in [4], in [5] and in data set [7] was “inactive” each time. The MIC result in data set [8], in data set [9], in data set [10] and in [11] was “inactive” throughout. Besides, the Activity in data set [6] came out at 27 µM.
In the case of `O=C(Cn1nc(Cc2cccs2)n(/N=C/c2cccnc2)c1=O)N/N=C/c1cccnc1`, the MIC entry in data set [1], in data set [2], in data set [3], in data set [4], in data set [5] and in data set [7] was “inactive” throughout. Moreover, the MIC result in data set [8], in data set [9], in [10] and in data set [11] was “inactive” throughout. Also, the Activity in data set [6] was 16 µM.
In the case of `Nn1c(Cc2cccs2)nn(Cc2nnc(S)n2-c2ccccc2)c1=O`, the MIC entry in data set [1], in data set [2], in data set [3], in data set [4], in data set [5] and in [7] was “inactive” in each case. In addition, the MIC result in data set [8], in data set [9], in data set [10] and in data set [11] was “inactive” in each case. In addition, the Activity came out at 11 µM in [6] and 62.7% in [12].
For the compound `Nn1c(Cc2cccs2)nn(Cc2nnc(S)n2-c2ccc(F)cc2)c1=O`, the MIC entry in data set [1], in [2], in [3], in [4], in [5] and in data set [7] was “inactive” in each case. The MIC entry in data set [8], in data set [9], in [10] and in data set [11] was “inactive” each time. Also, the results for the Activity in [6] and in [12] were 39 µM and 31.7%, respectively.
Take `CCOC(=O)Cn1nc(Cc2cccs2)n(N)c1=O`: the MIC in data set [1] (ATCC 607, 24 h) came out at 994 µg/mL (≈ 3.52 mM). In addition, the MIC entry in data set [2], in data set [3], in data set [4], in data set [5], in data set [7] and in data set [8] was “inactive” in each case. Moreover, the MIC result in [9], in data set [10] and in [11] was “inactive” throughout. In addition, the Activity was determined as 14 µM in data set [6] and 10% in data set [12].
Regarding `OC(Cn1cncn1)(Cn1cncn1)c1ccc(F)cc1F`, the MIC result in [2] and in data set [7] was “Active” each time.
For the compound `Nn1c(Cc2cccs2)nn(CC(=O)N/N=C/c2cccnc2)c1=O`, the MIC result in [1], in data set [2], in data set [3], in data set [4], in data set [5] and in data set [7] was “inactive” throughout. Besides, the MIC entry in [8], in data set [9], in data set [10] and in data set [11] was “inactive” in each case. The Activity in data set [6] was 26 µM.
With `O=C(Cn1nc(Cc2cccs2)n(/N=C/c2ccccc2)c1=O)N/N=C/c1ccccc1`, the MIC result in data set [1], in data set [2], in data set [3], in [4], in [5] and in data set [7] was “inactive” each time. The MIC result in data set [8], in [9], in data set [10] and in data set [11] was “inactive” throughout. Further, in [6], the Activity is 35 µM.
On to `COc1ccc(/C=N/NC(=O)Cn2nc(Cc3cccs3)n(/N=C/c3ccc(OC)cc3)c2=O)cc1`, for which the MIC result in data set [1], in [2], in [3], in data set [4], in data set [5] and in data set [7] was “inactive” each time. The MIC entry in data set [8], in [9], in data set [10] and in data set [11] was “inactive” in each case. Moreover, in data set [6], the Activity came out at 54 µM.
With `COc1ccc(/C=N/NC(=O)Cn2nc(Cc3cccs3)n(N)c2=O)cc1`, the MIC result in data set [1], in data set [2], in data set [3], in data set [4], in data set [5] and in [7] was “inactive” in each case. Further, the MIC entry in data set [8], in data set [9], in data set [10] and in [11] was “inactive” throughout. In addition, the Activity in [6] turned out to be 87 µM.
As to `Nn1c(Cc2cccs2)nn(Cc2nnc(S)n2-c2ccc(Br)cc2)c1=O`, the MIC in data set [1] (ATCC 607, 24 h) was found to be 1750 µg/mL (≈ 3.77 mM); in [4] it was 1750 µg/mL (≈ 3.77 mM); in data set [11] (ATCC 25923, 24 h) it was 1750 µg/mL (≈ 3.77 mM). Further, the MIC entry in data set [2], in data set [3], in data set [5], in data set [7], in data set [8] and in data set [9] was “inactive” each time. Also, the MIC result in data set [10] is “inactive”. For the same compound, the Activity was found to be 70 µM in data set [6] and 22.1% in [12].
With `CC1(C)S[C@@H]2[C@H](NC(=O)[C@H](N)c3ccccc3)C(=O)N2[C@H]1C(=O)O`, the MIC result in data set [1], in [3], in data set [4], in [5], in [8] and in data set [9] was “Active” in each case. Further, the MIC entry in [10] and in data set [11] was “Active” throughout.
`Cc1ccc(-n2c(S)nnc2Cn2nc(Cc3cccs3)n(N)c2=O)cc1`: the MIC entry in data set [1], in data set [2], in data set [3], in data set [4], in data set [5] and in [7] was “inactive” each time. Also, the MIC entry in data set [8], in data set [9], in data set [10] and in [11] was “inactive” in each case. The Activity in data set [6] is 54 µM; in [12], 23.9%.

Values taken from ChEMBL document CHEMBL3351382, “New thiophene-1,2,4-triazole-5(3)-ones: highly bioactive thiosemicarbazides, structures of Schiff bases and triazole-thiols” (Eur J Med Chem, 2014).
